Measured values: patent US11939304B1, “Ethyl 6-(5-(3-fluorophenyl)-4-phenyl-4H-1,2,4-triazol-3-ylthio)hexanoate as an antimicrobial compound” (KING FAISAL UNIVERSITY, priority 2023, dated 2024)

Columns and labels:
[1] = tested on: Bacillus cereus; test: agar plate disc-diffusion, antibacterial inhibition zone; format: cell-based; conditions: nutrient agar, 37° C., 48 hours, DMSO zone subtracted
Description: (§1) The agar plate disc-diffusion method was applied. […] The discs were then placed onto the surface of agar plates (nutrient agar for bacteria and Sabouraud's dextrose agar for fungi) seeded with the test organism. Each plate contained 15 mL of the agar medium, previously seeded with 0.2 mL of the broth culture of each organism pregrown for 18 hours. The plates were incubated at 37° C. for 48 hours, and 72 hours for fungi. The inhibition zones were measured in mm. Discs impregnated with DMSO were used as a control, and its inhibition zone was subtracted from the tested compound actual inhibition zone.

[2] = tested on: Escherichia coli; test: as above; format: cell-based; conditions: nutrient agar, 37° C., 48 hours, DMSO zone subtracted
Description: as §1

[3] = tested on: Pseudomonas aeruginosa; test: as above; format: cell-based; conditions: nutrient agar, 37° C., 48 hours, DMSO zone subtracted
Description: as §1

[4] = tested on: Staphylococcus aureus; test: as above; format: cell-based; conditions: nutrient agar, 37° C., 48 hours, DMSO zone subtracted
Description: as §1

[5] = tested on: Aspergillus flavus; test: agar plate disc-diffusion, antifungal inhibition zone; format: cell-based; conditions: Sabouraud's dextrose agar, 37° C., 72 hours, DMSO zone subtracted
Description: as §1

[6] = tested on: Chrysosporium keratinophilum; test: as above; format: cell-based; conditions: Sabouraud's dextrose agar, 37° C., 72 hours, DMSO zone subtracted
Description: as §1

[7] = A = concentration of comp. = 10,000 μL
[8] = B = concentration of comp. = 30,000 μL
[9] = C = concentration of comp. = 50,000 μL

SMILES: CCOC(=O)CCCCCSc1nnc(-c2cccc(F)c2)n1-c1ccccc1 [III, ethyl 6-(5-(3-fluorophenyl)-4-phenyl-4H-1,2,4-triazol-3-ylthio)hexanoate]
- inhibition zone, Bacillus Cereus, A [1, 7]: 28 mm
- inhibition zone, Bacillus Cereus, B [1, 8]: 30 mm
- inhibition zone, Bacillus Cereus, C [1, 9]: 41 mm
- inhibition zone, Escherichia coli, A [2, 7]: 27 mm
- inhibition zone, Escherichia coli, B [2, 8]: 35 mm
- inhibition zone, Escherichia coli, C [2, 9]: 50 mm
- inhibition zone, Pseudomonas aeruginosa, A [3, 7]: 26 mm
- inhibition zone, Pseudomonas aeruginosa, B [3, 8]: 29 mm
- inhibition zone, Pseudomonas aeruginosa, C [3, 9]: 41 mm
- inhibition zone, Staphylococcus aureus, A [4, 7]: 12 mm
- inhibition zone, Staphylococcus aureus, B [4, 8]: 19 mm
- inhibition zone, Staphylococcus aureus, C [4, 9]: 23 mm
- inhibition zone, Aspergillus flavus, A [5, 7]: 24 mm
- inhibition zone, Aspergillus flavus, B [5, 8]: 27 mm
- inhibition zone, Aspergillus flavus, C [5, 9]: 38 mm
- inhibition zone, Chrysosporium keratinophilum, A [6, 7]: 23 mm
- inhibition zone, Chrysosporium keratinophilum, B [6, 8]: 28 mm
- inhibition zone, Chrysosporium keratinophilum, C [6, 9]: 42 mm
- melting point: 107 to 109 °C
